Laboratory results: patent publication US20260256923A1, “NEW RECRUITMENT ELEMENT OF UBIQUITIN LIGASE AND USE THEREOF” (SHENZHEN LINGGENE BIOTECH CO., LTD., priority 2023, published 2026)

Columns and labels:
[1] = biological target: T1, interaction between NCL and MDM2 (Homo sapiens, UniProt P19338); assay: Co-immunoprecipitation of NCL and MDM2 from HeLa cell lysate, western blot; assay type: binding; conditions: 0-20 μM, 4° C. 6 h, IP with antibody against NCL
T1 construct: HeLa cervical cancer cells were lysed with an IP lysis solution; endogenous in cells; host or cells: HeLa cell lysate
T1 sequence (P19338 2-710 limits assumed): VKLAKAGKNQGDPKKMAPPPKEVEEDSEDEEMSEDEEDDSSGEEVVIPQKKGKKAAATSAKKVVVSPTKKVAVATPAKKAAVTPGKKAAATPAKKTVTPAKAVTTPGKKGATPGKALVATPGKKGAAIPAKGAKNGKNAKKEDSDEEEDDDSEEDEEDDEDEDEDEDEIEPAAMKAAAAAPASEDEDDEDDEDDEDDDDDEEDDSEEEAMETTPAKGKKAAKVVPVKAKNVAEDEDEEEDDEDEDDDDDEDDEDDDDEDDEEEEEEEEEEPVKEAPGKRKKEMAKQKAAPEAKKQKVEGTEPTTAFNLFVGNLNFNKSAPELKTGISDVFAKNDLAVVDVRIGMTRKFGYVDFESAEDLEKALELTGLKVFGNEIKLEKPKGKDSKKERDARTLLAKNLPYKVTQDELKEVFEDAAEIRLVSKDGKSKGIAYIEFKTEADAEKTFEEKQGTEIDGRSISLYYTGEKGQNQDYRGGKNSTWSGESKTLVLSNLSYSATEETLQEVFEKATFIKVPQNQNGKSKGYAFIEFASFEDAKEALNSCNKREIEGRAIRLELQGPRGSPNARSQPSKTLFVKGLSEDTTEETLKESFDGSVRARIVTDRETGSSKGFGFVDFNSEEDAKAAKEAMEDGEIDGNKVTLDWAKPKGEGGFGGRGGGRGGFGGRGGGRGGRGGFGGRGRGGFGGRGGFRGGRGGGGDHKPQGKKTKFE
Protocol: Co-immunoprecipitation (Co-IP) is a classical method for the study of protein interactions based on the specific interaction between an antibody and an antigen. It is an effective method to determine the physiological interaction between two proteins in intact cells.
HeLa cervical cancer cells were lysed with an IP lysis solution (purchased from Thermo Scientific, Cat. No.: 87788) and then incubated with AS 1411 or iSN04 at different concentrations (0 μM, 1 μM, 5 μM, 10 μM, and 20 μM) at 4° C. for 6 h. Subsequently, […] of an antibody against NCL was added, and the mixture was further incubated at 4° C. overnight. Protein A/G magnetic beads (purchased from Thermo Scientific, Cat. No.: 88802) were added, and the mixture was incubated with rotation at room temperature for 1.5 h. The bound NCL and its interacting proteins on the magnetic beads were washed with an IP lysis buffer (purchased from Thermo Scientific, Cat. No.: 87788), and an SDS-PAGE protein loading buffer (purchased from Beyotime, Cat. No.: P0015) was added. The mixture was heated to 100° C. and held for 10 min. The magnetic beads were adsorbed on a magnetic rack, and the supernatant was transferred into a new tube. Subsequently, western blot assay was performed to detect whether NCL bound to MDM2 and whether the binding was affected by AS 1411 or iSN04. […]

MDM2 = MDM2 (Homo sapiens, UniProt Q00987); assay: Biotin-oligonucleotide pull-down from HeLa cell lysate, western blot (MDM2); assay type: binding; design: HeLa cervical cancer cells were lysed with an IP lysis solution; endogenous in cells; host or cells: HeLa; conditions: 5′-biotin label, 0 nM-20 μM
Sequence of MDM2 (P19338 2-710 partner limits assumed): as the sequence (P19338 2-710 limits assumed) above
Sequence of MDM2 (Q00987 whole entry): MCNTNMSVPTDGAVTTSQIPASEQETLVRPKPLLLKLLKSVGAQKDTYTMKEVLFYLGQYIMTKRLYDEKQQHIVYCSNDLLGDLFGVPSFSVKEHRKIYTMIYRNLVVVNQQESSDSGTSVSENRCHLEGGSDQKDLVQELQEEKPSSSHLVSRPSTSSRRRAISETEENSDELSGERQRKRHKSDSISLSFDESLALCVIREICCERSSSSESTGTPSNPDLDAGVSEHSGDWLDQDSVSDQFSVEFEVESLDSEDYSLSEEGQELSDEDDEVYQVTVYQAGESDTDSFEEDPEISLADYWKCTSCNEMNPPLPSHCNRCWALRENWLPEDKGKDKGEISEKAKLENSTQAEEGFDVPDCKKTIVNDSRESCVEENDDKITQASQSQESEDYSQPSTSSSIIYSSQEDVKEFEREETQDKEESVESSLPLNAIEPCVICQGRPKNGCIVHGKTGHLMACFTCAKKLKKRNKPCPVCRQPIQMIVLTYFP
Protocol: HeLa cervical cancer cells were lysed with an IP lysis solution (purchased from Thermo Scientific, Cat. No.: 87788) and then incubated with a CRO (cytosine-rich oligonucleotide, negative control, SEQ ID NO: 13), AS1411, or iSN04 labeled by biotin at the 5′ end at different concentrations (0 nM, 200 nM, 500 nM, 1 μM, 5 μM, 10 μM, and 20 μM) at 4° C. for 6h. Subsequently, streptavidin agarose gel beads (purchased from cytiva, Cat. No.: 17511301) were added, and the mixture was further incubated at 4° C. overnight. After the bound biotin-labeled CRO, AS411, or iSN04 and its captured proteins on the gel beads were washed multiple times with an IP lysis buffer (purchased from Thermo Scientific, Cat. No.: 87788), an SDS-PAGE protein loading buffer (purchased from Beyotime, Cat. No.: P0015) was added, and the mixture was heated to 100° C. and held for 10 min. After centrifugation, the supernatant was collected as a pull-down product. The pull-down product was detected by western blot assay.

[2] = system: HeLa cervical cancer cells; assay: Binding of Cy5-labeled oligonucleotide to HeLa cells, flow cytometer; assay type: cell-based; conditions: 500 nM Cy5-labeled, 1.5 h
Protocol: When AS1411 was selected as the GRO, the model analysis for AS1411 as the novel recruitment element of MDM2 and a PROTAC constructed by using AS1411 as the novel recruitment element of MDM2 was specifically as follows: Since NCL is highly expressed in tumor cells and specifically distributed on the surface of tumor cells, the binding ability of AS1411 to HeLa cervical cancer cells was examined. HeLa cells were incubated with 500 nM CRO (cytosine-rich oligonucleotide, negative control) and AS1411 labeled by Cy5 for 1.5 h. […] AS1411 is set forth in SEQ ID NO: 1, and the sequence of the CRO is set forth in SEQ ID NO: 13.

HeLa cells = assay: Cell penetration and intracellular colocalization, confocal laser microscope; assay type: cell-based; conditions: 500 nM Cy5-labeled, 6 h
Protocol: HeLa cells were incubated with 500 nM Cy5-labeled CRO or AS1411 for 6 h. After the incubation was completed, immunofluorescence staining was performed on NCL and MDM2, and 4′,6-diamidino-2-phenylindole (DAPI) was used to stain nuclei. The cell penetration of the CRO or AS1411 and the intracellular colocalization of the CRO or AS1411 with NCL and MDM2 were observed under a confocal laser microscope.
HeLa cells were transfected with si-NC or si-NCL and subsequently incubated with 500 nM Cy5-labeled AS1411 for 6 h. After the incubation was completed, immunofluorescence staining was performed on MDM2, and DAPI was used to stain nuclei. The intracellular colocalization of AS1411 with MDM2 was observed by a confocal laser microscope.

AS1411: DNA aptamer, GRO binding NCL, SEQ ID NO: 1: 5′-GGTGGTGGTGGTTGTGGTGGTGGTGG-3′
effect on the interaction between NCL and MDM2 [1]: does not affect the interaction between NCL and MDM2
capture of MDM2 (MDM2): can capture NCL and MDM2 in a concentration-dependent manner
binding ability to HeLa cells [2]: can significantly bind to HeLa cells
cell penetration (HeLa cells): can penetrate HeLa cells
intracellular colocalization with NCL and MDM2 (HeLa cells): exhibits significant colocalization with both NCL and MDM2
cell penetration when NCL is silenced (HeLa cells; si-NCL): silencing NCL can block AS1411 from penetrating cells
intracellular colocalization with MDM2 when NCL is silenced (HeLa cells; si-NCL): no observed colocalization between AS1411 and MDM2
